Experimental data published in patent US20240158391A1, “DERIVATIVES OF 4-(IMIDAZO[1,2-A]PYRIDIN-3-YL)-N-(PYRIDIN-3-YL) PYRIMIDIN-2- AMINE FOR TREATING PROLIFERATIVE DISEASES AND CONDITIONS” (AUCENTRA THERAPEUTICS PTY LTD, priority 2019, published 2024).

How the values were obtained:
[1] = biological target: CDK1/CyclinB (Homo sapiens, UniProt P06493); test: ADP Glo kinase assay, CDK1/CyclinB; format: biochemical; settings: for remaining activity at 1 µM: compound at 1 μM, read-out: Residual enzymatic activity (%) at 1 μM, CDK1 B; for Ki: Km ATP, read-out: Enzymatic inhibition, Ki, CDK1 B
Sequence of CDK1/CyclinB (P06493 whole entry, species assumed): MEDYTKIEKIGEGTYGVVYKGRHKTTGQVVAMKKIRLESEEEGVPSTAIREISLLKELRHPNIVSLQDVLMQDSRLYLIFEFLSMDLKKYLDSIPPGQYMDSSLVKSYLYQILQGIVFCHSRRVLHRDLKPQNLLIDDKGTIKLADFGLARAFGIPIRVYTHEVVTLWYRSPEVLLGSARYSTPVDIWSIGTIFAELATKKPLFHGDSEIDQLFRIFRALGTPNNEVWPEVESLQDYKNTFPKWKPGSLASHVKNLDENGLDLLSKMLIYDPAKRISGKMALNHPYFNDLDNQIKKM
Sequence of CDK1/CyclinB (P14635 whole entry partner, species assumed): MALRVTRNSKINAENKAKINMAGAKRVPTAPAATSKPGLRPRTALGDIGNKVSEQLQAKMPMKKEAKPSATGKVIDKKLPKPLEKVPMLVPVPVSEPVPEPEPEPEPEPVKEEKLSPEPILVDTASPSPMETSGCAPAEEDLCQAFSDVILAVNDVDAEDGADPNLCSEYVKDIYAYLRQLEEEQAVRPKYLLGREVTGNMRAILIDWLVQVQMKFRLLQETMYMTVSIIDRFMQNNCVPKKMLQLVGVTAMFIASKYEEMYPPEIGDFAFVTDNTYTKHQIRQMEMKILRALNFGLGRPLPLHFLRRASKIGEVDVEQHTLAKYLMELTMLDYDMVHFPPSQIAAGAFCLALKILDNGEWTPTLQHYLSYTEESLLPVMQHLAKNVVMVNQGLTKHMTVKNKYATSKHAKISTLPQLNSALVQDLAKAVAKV
Method: (§1) Test compounds are used in 1:3 serial dilutions for 10 concentrations (from 10-0.0005 μM) in 0.5% DMSO. […] The kinase reactions are run for optimised time period at room temperature and then the reaction is stopped by adding 5 μL of ADP Glo reagent.

[2] = biological target: CDK2/CyclinA2 (Homo sapiens, UniProt P24941); test: ADP Glo kinase assay, CDK2/CyclinA2; format: biochemical; settings: for remaining activity at 1 µM: compound at 1 μM, read-out: Residual enzymatic activity (%) at 1 μM, CDK2 A; for Ki: Km ATP, read-out: Enzymatic inhibition, Ki, CDK2 A
Method: as §1

[3] = biological target: CDK4/CyclinD1 (Homo sapiens, UniProt P11802); test: ADP Glo kinase assay, CDK4/CyclinD1; format: biochemical; settings: for remaining activity at 1 µM: compound at 1 μM, read-out: Residual enzymatic activity (%) at 1 μM, CDK4 D1; for Ki: Km ATP, read-out: Enzymatic inhibition, Ki, CDK4 D1
Sequence of CDK4/CyclinD1 (P11802 whole entry, species assumed): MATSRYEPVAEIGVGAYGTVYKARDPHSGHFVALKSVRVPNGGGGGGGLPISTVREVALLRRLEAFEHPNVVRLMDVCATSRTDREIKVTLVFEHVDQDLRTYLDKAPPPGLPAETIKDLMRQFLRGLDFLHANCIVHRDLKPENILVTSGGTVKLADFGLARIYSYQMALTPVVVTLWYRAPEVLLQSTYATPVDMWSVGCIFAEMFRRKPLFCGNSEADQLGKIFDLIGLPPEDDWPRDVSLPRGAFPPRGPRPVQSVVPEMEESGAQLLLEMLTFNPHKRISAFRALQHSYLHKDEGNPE
Sequence of CDK4/CyclinD1 (P24385 whole entry partner, species assumed): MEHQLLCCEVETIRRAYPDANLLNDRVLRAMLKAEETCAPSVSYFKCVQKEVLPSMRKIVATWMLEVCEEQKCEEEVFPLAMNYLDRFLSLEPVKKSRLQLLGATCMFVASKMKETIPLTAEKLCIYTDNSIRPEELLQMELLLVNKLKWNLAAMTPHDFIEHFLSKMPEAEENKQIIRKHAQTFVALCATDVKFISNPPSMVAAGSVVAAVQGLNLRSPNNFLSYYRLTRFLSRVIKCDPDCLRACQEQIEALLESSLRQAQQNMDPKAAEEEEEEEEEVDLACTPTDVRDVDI
Method: as §1

[4] = biological target: CDK6/CyclinD3 (Homo sapiens, UniProt Q00534); test: ADP Glo kinase assay, CDK6/CyclinD3; format: biochemical; settings: for remaining activity at 1 µM: compound at 1 μM, read-out: Residual enzymatic activity (%) at 1 μM, CDK6 D3; for Ki: Km ATP, read-out: Enzymatic inhibition, Ki, CDK6 D3
Sequence of CDK6/CyclinD3 (Q00534 whole entry, species assumed): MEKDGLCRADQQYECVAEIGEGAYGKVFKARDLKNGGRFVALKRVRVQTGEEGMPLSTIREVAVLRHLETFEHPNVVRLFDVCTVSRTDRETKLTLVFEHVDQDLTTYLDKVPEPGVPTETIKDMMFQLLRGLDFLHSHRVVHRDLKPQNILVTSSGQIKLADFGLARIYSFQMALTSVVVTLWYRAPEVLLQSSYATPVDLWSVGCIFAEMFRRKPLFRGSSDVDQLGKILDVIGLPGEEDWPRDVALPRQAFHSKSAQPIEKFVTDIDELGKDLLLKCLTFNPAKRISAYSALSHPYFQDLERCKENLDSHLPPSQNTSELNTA
Sequence of CDK6/CyclinD3 (P30281 whole entry partner, species assumed): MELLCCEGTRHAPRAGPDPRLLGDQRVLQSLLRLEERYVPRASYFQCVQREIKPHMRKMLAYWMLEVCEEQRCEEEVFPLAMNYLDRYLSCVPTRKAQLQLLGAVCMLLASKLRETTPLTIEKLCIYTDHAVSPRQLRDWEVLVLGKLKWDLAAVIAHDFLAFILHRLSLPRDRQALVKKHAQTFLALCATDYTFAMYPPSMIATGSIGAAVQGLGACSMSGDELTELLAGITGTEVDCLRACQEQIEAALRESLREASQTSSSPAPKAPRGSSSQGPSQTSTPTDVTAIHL
Method: as §1

[5] = biological target: CDK7/CyclinH/Mat1 (Homo sapiens, UniProt P50613); test: ADP Glo kinase assay, CDK7/CyclinH/Mat1; format: biochemical; settings: for remaining activity at 1 µM: compound at 1 μM, read-out: Residual enzymatic activity (%) at 1 μM, CDK7 H; for Ki: Km ATP, read-out: Enzymatic inhibition, Ki, CDK7 H
Sequence of CDK7/CyclinH/Mat1 (P50613 whole entry, species assumed): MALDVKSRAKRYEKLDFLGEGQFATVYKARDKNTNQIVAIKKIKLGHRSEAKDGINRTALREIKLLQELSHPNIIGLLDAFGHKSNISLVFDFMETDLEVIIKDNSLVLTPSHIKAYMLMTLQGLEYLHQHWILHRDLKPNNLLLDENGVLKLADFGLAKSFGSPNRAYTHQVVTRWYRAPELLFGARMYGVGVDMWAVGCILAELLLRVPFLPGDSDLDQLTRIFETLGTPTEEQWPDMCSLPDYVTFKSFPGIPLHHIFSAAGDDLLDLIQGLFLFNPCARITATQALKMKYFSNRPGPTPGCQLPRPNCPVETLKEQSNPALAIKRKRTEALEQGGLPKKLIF
Sequence of CDK7/CyclinH/Mat1 (P51946 whole entry partner, species assumed): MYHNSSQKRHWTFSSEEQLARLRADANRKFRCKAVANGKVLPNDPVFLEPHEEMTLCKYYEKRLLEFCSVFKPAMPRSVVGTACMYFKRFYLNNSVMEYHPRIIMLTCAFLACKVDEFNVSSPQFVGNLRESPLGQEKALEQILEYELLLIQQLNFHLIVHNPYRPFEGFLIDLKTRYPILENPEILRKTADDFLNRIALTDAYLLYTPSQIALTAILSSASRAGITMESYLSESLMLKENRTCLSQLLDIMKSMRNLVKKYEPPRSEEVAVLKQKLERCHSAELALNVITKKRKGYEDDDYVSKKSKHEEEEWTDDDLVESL
Sequence of CDK7/CyclinH/Mat1 (P51948 whole entry partner, species assumed): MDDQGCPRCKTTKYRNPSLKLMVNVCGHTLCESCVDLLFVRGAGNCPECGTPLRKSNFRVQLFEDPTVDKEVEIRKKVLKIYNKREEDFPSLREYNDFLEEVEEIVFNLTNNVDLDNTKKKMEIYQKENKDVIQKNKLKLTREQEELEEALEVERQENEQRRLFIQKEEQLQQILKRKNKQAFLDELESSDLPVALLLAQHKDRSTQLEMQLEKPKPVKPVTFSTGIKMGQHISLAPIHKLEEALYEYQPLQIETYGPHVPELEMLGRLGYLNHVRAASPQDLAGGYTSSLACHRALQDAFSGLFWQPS
Method: as §1

[6] = biological target: CDK9/CyclinT1 (Homo sapiens, UniProt P50750); test: ADP Glo kinase assay, CDK9/CyclinT1; format: biochemical; settings: for Ki: CDK9/CyclinT1, Km ATP, read-out: Enzymatic inhibition, Ki, CDK9 T1
Sequence of CDK9/CyclinT1 (P50750 whole entry, species assumed): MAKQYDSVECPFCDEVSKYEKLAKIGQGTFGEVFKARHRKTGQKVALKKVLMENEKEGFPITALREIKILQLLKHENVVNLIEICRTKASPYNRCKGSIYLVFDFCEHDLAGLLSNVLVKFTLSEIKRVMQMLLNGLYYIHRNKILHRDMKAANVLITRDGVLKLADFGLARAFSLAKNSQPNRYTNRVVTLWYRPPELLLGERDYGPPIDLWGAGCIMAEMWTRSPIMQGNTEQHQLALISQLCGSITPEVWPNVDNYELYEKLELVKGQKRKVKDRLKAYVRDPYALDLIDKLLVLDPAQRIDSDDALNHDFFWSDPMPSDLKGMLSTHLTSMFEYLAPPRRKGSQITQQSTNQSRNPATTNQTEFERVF
Sequence of CDK9/CyclinT1 (O60563 whole entry partner, species assumed): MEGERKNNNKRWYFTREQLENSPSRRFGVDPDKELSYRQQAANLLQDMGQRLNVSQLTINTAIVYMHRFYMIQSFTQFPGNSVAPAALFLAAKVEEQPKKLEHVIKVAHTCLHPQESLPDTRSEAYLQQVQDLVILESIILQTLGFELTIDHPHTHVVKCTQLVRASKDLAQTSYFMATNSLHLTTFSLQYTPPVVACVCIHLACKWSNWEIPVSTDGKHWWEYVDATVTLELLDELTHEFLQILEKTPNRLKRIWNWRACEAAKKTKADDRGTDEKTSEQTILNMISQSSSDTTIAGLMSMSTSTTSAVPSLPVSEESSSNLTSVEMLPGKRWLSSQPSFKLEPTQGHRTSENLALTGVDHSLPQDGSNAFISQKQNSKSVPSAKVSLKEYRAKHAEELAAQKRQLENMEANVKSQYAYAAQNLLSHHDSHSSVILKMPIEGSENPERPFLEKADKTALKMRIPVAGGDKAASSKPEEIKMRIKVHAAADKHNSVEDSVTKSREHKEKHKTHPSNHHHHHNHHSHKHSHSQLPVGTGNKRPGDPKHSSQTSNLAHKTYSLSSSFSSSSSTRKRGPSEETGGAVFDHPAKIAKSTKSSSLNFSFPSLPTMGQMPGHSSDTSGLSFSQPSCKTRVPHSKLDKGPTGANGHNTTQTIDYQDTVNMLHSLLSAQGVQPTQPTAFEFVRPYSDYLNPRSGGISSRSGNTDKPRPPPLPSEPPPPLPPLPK
Method: as §1

[7] = test system: MV-4-11; test: Proliferation assay (resazurin, leukemia cell lines), MV-4-11; format: cell-based; settings: Homo sapiens, MV4-11, read-out: 72 h Growth inhibition GI50, MV-4-11 cells
From the text: The following compounds were used as comparators.

[8] = biological target: T1, FLT3-ITD (Homo sapiens, UniProt P36888); test: ADP Glo kinase assay, FLT3-ITD; format: biochemical; settings: for Ki: Km ATP 100 μM, read-out: Enzymatic inhibition, Ki, FLT3-ITD
T1 sequence (P36888 1-993): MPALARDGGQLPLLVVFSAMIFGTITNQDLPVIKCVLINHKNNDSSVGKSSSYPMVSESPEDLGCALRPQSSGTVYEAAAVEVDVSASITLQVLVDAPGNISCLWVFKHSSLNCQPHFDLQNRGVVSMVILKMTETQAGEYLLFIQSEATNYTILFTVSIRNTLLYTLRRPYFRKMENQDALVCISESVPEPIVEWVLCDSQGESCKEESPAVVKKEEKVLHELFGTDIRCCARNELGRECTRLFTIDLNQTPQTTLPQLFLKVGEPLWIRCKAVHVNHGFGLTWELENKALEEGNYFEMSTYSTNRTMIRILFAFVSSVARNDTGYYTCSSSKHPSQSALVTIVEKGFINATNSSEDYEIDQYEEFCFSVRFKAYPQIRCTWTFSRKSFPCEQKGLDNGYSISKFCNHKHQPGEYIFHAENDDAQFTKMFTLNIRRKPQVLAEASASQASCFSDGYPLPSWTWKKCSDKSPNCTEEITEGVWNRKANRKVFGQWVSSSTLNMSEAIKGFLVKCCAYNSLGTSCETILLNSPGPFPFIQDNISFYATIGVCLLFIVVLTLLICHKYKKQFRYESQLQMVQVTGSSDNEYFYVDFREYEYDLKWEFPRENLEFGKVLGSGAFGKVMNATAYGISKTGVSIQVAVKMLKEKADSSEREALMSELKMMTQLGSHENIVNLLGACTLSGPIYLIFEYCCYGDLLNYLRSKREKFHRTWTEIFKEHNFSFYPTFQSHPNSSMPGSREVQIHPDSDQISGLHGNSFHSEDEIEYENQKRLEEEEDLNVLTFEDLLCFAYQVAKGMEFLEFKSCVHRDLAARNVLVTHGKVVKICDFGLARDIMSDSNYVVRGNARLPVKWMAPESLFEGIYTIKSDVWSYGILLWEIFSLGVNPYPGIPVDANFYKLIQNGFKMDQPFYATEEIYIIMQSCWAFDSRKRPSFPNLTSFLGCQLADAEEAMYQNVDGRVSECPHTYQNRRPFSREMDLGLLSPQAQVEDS
Method: as §1

Row | remaining activity at 1 µM [1] [%] | remaining activity at 1 µM [2] [%] | remaining activity at 1 µM [3] [%] | remaining activity at 1 µM [4] [%] | remaining activity at 1 µM [5] [%] | Ki [6] [nM] | GI50 [7] [nM] | Ki [1] [nM] | Ki [2] [nM] | Ki [3] [nM] | Ki [4] [nM] | Ki [5] [nM] | Ki [8] [nM] | Structure (SMILES) | inhibition of CDK9 (in words) ([6]; compared with comparator compounds A, B and C (N-(pyridin-2-yl)pyrimidin-2-amine moiety)) | Residual enzymatic activity (%) at 1 μM, FLT3-ITD ([8]; compound at 1 μM) [%]
1 | 98 | 99 | 76 | 87 | 70 | > 500 | 7 |  |  |  |  |  |  | CN1CCN(c2ccc(Nc3nccc(-c4cnc5ccc(-c6cnn(C)c6)cn45)n3)nc2)CC1 [Comparator compound B, 4-(6-(1-methyl-1H-pyrazol-4-yl)imidazo[1,2-a]pyridin-3-yl)-N-(5-(4-methylpiperazin-1-yl)pyridin-2-yl)pyrimidin-2-amine, reference compound] |  | 
2 | 67 | 94 | 76 | 87 | 75 | 140 |  |  |  |  |  |  |  | CN1CCN(c2ccc(Nc3nccc(-c4cnc5ccc(-c6cccnc6)cn45)n3)nc2)CC1 [Comparator compound C, N-(5-(4-methylpiperazin-1-yl)pyridin-2-yl)-4-(6-(pyridin-3-yl)imidazo[1,2-a]pyridin-3-yl)pyrimidin-2-amine, reference compound] |  | 
3 |  |  |  |  |  | 2 | 1 | 141 | 59 | 8 | 43 | 1090 | 2 | CN1CCN(c2ccc(Nc3nccc(-c4cnc5ccccn45)n3)cn2)CC1 [Compound 1, 4-(Imidazo[1,2-a]pyridin-3-yl)-N-(6-(4-methylpiperazin-1-yl)pyridin-3-yl)pyrimidin-2-amine] |  | 
4 |  |  |  |  |  | 2 | 10 | 645 | 1030 | > 500 |  |  | 15 | CN1CCN(c2ccc(Nc3nccc(-c4cnc5ccc(-c6cnn(C)c6)cn45)n3)cn2)CC1 [Compound 9, 4-(6-(1-Methyl-1H-pyrazol-4-yl)imidazo[1,2-a]pyridin-3-yl)-N-(6-(4-methylpiperazin-1-yl)pyridin-3-yl)pyrimidin-2-amine] | dramatically and surprisingly increased the potency of inhibition of CDK9 | 
5 | 67 | 26 | 72 | 46 |  | 20 | 181 |  |  |  |  |  | 23 | CN1CCN(c2ccc(Nc3nccc(-c4cnc5ccc(-c6cnc(N)nc6)cn45)n3)cn2)CC1 [Compound 23, 4-(6-(2-Aminopyrimidin-5-yl)imidazo[1,2-a]pyridin-3-yl)-N-(6-(4-methylpiperazin-1-yl)pyridin-3-yl)pyrimidin-2-amine] |  | 
6 |  |  | 21 |  |  | 4 | 33 | 29 | 42 |  |  |  | 8 | CN1CCN(c2ccc(Nc3nccc(-c4cnc5ccc(-c6cn[nH]c6)cn45)n3)cn2)CC1 [Compound 24, 4-(6-(1H-Pyrazol-4-yl)imidazo[1,2-a]pyridin-3-yl)-N-(6-(4-methylpiperazin-1-yl)pyridin-3-yl)pyrimidin-2-amine] |  | 
7 |  |  |  |  |  | 4 | 4 | 48 | 15 | 34 |  | 84 | 16 | Cc1ccc2ncc(-c3ccnc(Nc4ccc(N5CCN(C)CC5)nc4)n3)n2c1 [Compound 35, 4-(6-Methylimidazo[1,2-a]pyridin-3-yl)-N-(6-(4-methylpiperazin-1-yl)pyridin-3-yl)pyrimidin-2-amine] |  | 
8 | 32 | 55 |  | 57 | 40 | 7 | 8 |  |  |  |  |  | 12 | CN1CCN(c2ccc(Nc3nccc(-c4cnc5ccc(-c6cnn(C(F)F)c6)cn45)n3)cn2)CC1 [Compound 70, 4-(6-(1-(Difluoromethyl)-1H-pyrazol-4-yl)imidazo[1,2-a]pyridin-3-yl)-N-(6-(4-methylpiperazin-1-yl)pyridin-3-yl)pyrimidin-2-amine] |  | 

Continued, molecule first:

Row | Structure (SMILES) | remaining activity at 1 µM [1] [%] | remaining activity at 1 µM [2] [%] | remaining activity at 1 µM [3] [%] | remaining activity at 1 µM [4] [%] | remaining activity at 1 µM [5] [%] | Ki [6] [nM] | GI50 [7] [nM] | Ki [1] [nM] | Ki [2] [nM] | Ki [3] [nM] | Ki [4] [nM] | Ki [5] [nM] | Ki [8] [nM] | inhibition of CDK9 (in words) ([6]; compared with comparator compounds A, B and C (N-(pyridin-2-yl)pyrimidin-2-amine moiety)) | Residual enzymatic activity (%) at 1 μM, FLT3-ITD ([8]; compound at 1 μM) [%]
9 | Cc1nc2ccc(F)cn2c1-c1ccnc(Nc2ccc(N3CCN(C)CC3)nc2)n1 [Compound 2, 4-(6-Fluoro-2-methylimidazo[1,2-a]pyridin-3-yl)-N-(6-(4-methylpiperazin-1-yl)pyridin-3-yl)pyrimidin-2-amine] |  |  |  |  |  | 168 | 78 | 152 | 63 | 55 | 54 | 560 | 3 |  | 
10 | Cc1cnc(Nc2ccc(N3CCN(C)CC3)nc2)nc1-c1cnc2ccccn12 [Compound 3, 4-(Imidazo[1,2-a]pyridin-3-yl)-5-methyl-N-(6-(4-methylpiperazin-1-yl)pyridin-3-yl) pyrimidin-2-amine] |  |  |  |  |  | 136 | 32 | 505 | 83 | 46 | 522 | 2900 | 9 |  | 
11 | CS(=O)(=O)N1CCN(c2ccc(Nc3nccc(-c4cnc5ccc(Br)cn45)n3)cn2)CC1 [Compound 16, 4-(6-Bromoimidazo[1,2-a]pyridin-3-yl)-N-(6-(4-(methylsulfonyl)piperazin-1-yl)pyridin-3-yl)pyrimidin-2-amine] |  |  |  |  |  | 77 | 10 | 153 | 124 | 718 | 2090 |  | 7 |  | 
12 | CC(C)N1CCN(c2ccc(Nc3nccc(-c4cnc5ccc(Br)cn45)n3)cn2)CC1 [Compound 38, 4-(6-Bromoimidazo[1,2-a]pyridin-3-yl)-N-(6-(4-isopropylpiperazin-1-yl)pyridin-3-yl)pyrimidin-2-amine] |  |  |  |  |  | 10 | 39 | 145 | 44 | 49 | 295 |  | 10 |  | 
13 | CN(C)c1ccc(Nc2nccc(-c3cnc4ccc(C5=CCNCC5)cn34)n2)cn1 [Compound 69, N^2,N^2-Dimethyl-N^5-(4-(6-(1,2,3,6-tetrahydropyridin-4-yl)imidazo[1,2-a]pyridin-3-yl)pyrimidin-2-yl)pyridine-2,5-diamine] |  |  |  | 81 | 65 | 16 | 152 | 116 | 82 |  |  |  |  |  | 30
14 | O=C1NCCC12CCN(c1ccc(Nc3nccc(-c4cnc5ccc(Br)cn45)n3)cn1)CC2 [Compound 71, 8-(5-((4-(6-Bromoimidazo[1,2-a]pyridin-3-yl)pyrimidin-2-yl)amino)pyridin-2-yl)-2,8-diazaspiro[4.5]decan-1-one] | 95 | 74 |  | 97 | 91 | > 500 | 12 |  |  |  |  |  | 24 |  | 
15 | O=C1NCCC12CCN(c1ccc(Nc3nccc(-c4cnc5ccc(-c6ccccc6)cn45)n3)cn1)CC2 [Compound 72, 8-(5-((4-(6-Phenylimidazo[1,2-a]pyridin-3-yl)pyrimidin-2-yl)amino)pyridin-2-yl)-2,8-diazaspiro[4.5]decan-1-one] | 75 | 64 |  | 73 | 59 | > 500 | 5 |  |  |  |  |  | 55 |  | 
